In patent US4963565A, “In vivo treatment of mycobacterial infections with 6-cyclo octylamino-5,8-quinoline quinone” (priority 1986, dated 1990):

Columns and labels:
Mycobacterium leprae = experiment: Inhibitory activity against Mycobacterium leprae in the macrophage model (3H thymidine uptake); type: cell-based, M. leprae (in human monocyte derived macrophages)
Description: The effect of CQQ on Mycobacterium leprae, the causative agent for leprosy, was studied using monocyte derived macrophages obtained from human volunteers.
Blood from a healthy volunteer was drawn and monocytes were removed and cultured to the macrophage stage. This required about 7 days. The macrophages were then exposed to M. leprae bacilli obtained from biopsy specimens of leprosy patients. One sample was exposed to CQQ, while other samples were exposed to DDS (diaminodiphenyl sulphone), the standard antileprosy drug, or rifampin, at various concentrations. Macrophages were exposed to radiolabelled tritium (^3 H) labeled thymidine, and its uptake was measured using a liquid scintillation counter. A control model of M. leprae exposed macrophages, which was not treated was used as well. The uptake of thymidine is a measure of antimycobacterial activity.

M. intracellulare = experiment: In vitro activity against serovars of M. intracellulare, radiometric (Bactec) method; type: cell-based; conditions: comparison with CQQ; no data shown
Experimental: A study of the effect of CQQ on different serovars of M. intracellulare in vitro was performed using the radiometric (Bactec) method. Maximum growth index (GI) of 999 was determined (for control models) in terms of the number of days necessary for the culture to reach this stage. GI is measured using the special instrument which reads the amount of ^14 C labelled CO2 liberated from the strains using the ^14 C labelled substrates.

In the case of `Nc1ccc(S(=O)(=O)c2ccc(N)cc2)cc1` [DDS, diaminodiphenyl sulphone, reference compound], the “Counts per minute (3H thymidine uptake)” value (Mycobacterium leprae; Sample I, 10 NG/ML) is reported as 84 COUNTS PER MINUTE, the “Counts per minute (3H thymidine uptake)” value (Mycobacterium leprae; Sample II, DDS 10 NG/ML) is reported as 78 COUNTS PER MINUTE and the “Counts per minute (3H thymidine uptake)” value (Mycobacterium leprae; Sample III, DDS 10 NG/ML) is reported as 84 COUNTS PER MINUTE.
With `CO[C@H]1/C=C/O[C@@]2(C)Oc3c(C)c(O)c4c(O)c(c(/C=N/N5CCN(C)CC5)c(O)c4c3C2=O)NC(=O)/C(C)=C\C=C\[C@H](C)[C@H](O)[C@@H](C)[C@@H](O)[C@@H](C)[C@H](OC(C)=O)[C@@H]1C` [rifampin, reference compound] the “Effectiveness on M. intracellulare strains” value (M. intracellulare) was “only effective on a few strains”, the “Counts per minute (3H thymidine uptake)” value (Mycobacterium leprae; Sample I, 3 NG/ML) was 82 COUNTS PER MINUTE and the “Counts per minute (3H thymidine uptake)” value (Mycobacterium leprae; Sample II, 3 NG/ML) was 80 COUNTS PER MINUTE. For the same compound, the “Counts per minute (3H thymidine uptake)” value (Mycobacterium leprae; Sample III, 3 NG/ML) was 82 COUNTS PER MINUTE.
